Reference: US20210260069A1, “IRE1a INHIBITOR IN COMBINATION WITH CANCER [sequence] AGENT FOR CANCER TREATMENT” (Fosun Orinove PharmaTech, Inc., priority 2018, published 2021)

How the values were obtained:
[1] = tested on: human liver HUH-7 cells; test: Subcutaneous HUH-7 liver cancer xenograft model, survival (Example 23); type: in vivo, Female BALB/c nude mice
Procedure: Female BALB/c nude mice were subcutaneously inoculated with human liver HUH-7 cells (from JCRB) to establish a xenograft model of liver cancer. The scheduled administration cycle was 28 days. Animals were assigned into 4 groups (n=10/group): one vehicle group, two single treatment groups (Orin 1001 administered at 80 mg/kg/day q.d. for 28 days; Sorafenib administered following a dose regimen of 18.25 mg/kg/day q.d. for 5 days, then 25 mg/kg/day q.d. for 3 days, and then 45 mg/kg/day q.d. for 20 days, consecutively) and one combination treatment group (sorafenib administered following a dose regimen of 18.25 mg/kg/day q.d. for 5 days, then 25 mg/kg/day q.d. for 3 days, and then 45 mg/kg/day q.d. for 20 days, consecutively, whilst combined with Orin 1001 administered q.d. at a dose of 80 mg/kg/day for 28 days). All vehicle or administration treatments were given via oral gavage. Sorafenib was formulated with Kolliphor® EL/ethanol (2/1, v/v) and water. Orin 1001 was dissolved with cellulose microcrystalline and sucrose in purified water to form as suspension. The mice were euthanized if a tumor volume achieved over 2000 mm^3. Otherwise the experiment ended on the 6th day after the last administration.

[2] = tested on: Hep3B-Luc cells; test: Orthotopic Hep3B-luc human liver xenograft model (Example 22); type: in vivo, female BALB/c nude mice
Procedure: The tumor was inoculated by injecting Hep3B-Luc cells (established by WuXi AppTec R&D center) mixed with BD Matrigel in 20 μl (PBS:Matrigel=1:1) into the left lobe of the liver. […] Sorafenib was formulated with Cremophor® EL/ethanol (1:1) and purified water to form a solution of 9 mg/ml. […] Tumor weight was measured at the termination of study. T/Cweight value (in percent) was calculated using the formula: T/Cweight%=Tweight/Cweight×100%, while Tweight and Cweight were the mean tumor weights of the treated and the vehicle control groups, respectively.

[3] = tested on: RPMI 8226 tumor cells; test: Intratumoral XBP-1 spliced effect in Velcade treated RPMI xenografts; type: in vivo, Nude mice; conditions: Orin 1001 30 mg/kg PO on Day 27 in Velcade treated mice, tumor taken four hours later
Procedure: The mice were treated again on the 24th day with Velcade®. On Day 27, the mice were treated with Orin 1001 at 30 mg/kg PO, four hours later the mice were sacrificed as in Example 25, and tumor tissues were isolated. In a similar way as described for the liver PD test in Example 25, RNA extraction and RT-PCR analysis gave the results as shown FIG. 13.
BALB/c mice were injected intraperitoneally with 100 microliters at an equivalent dose of 1 mg/kg tunicamycin solution. Two hours after tunicamycin injection, mice were dosed with compound of interest either PO or IV. Following 2 hours for PO delivery of compound, mice were euthanized according to IACUC protocols using CO2 from a […] source. A 1 cm^3 fragment of the liver for homogenization and extraction of the RNA were collected for further analysis. Total RNA is harvested from cells or tissue using TRIzol according to the manufacturer's procedures. After ethanol precipitation and resuspension of the RNA, RiboGreen (Invitrogen) is used to quantify the yield and normalize the RNA concentration in the source tube containing isolated RNA. RT-PCR is performed by Oligo(dT) priming, and SuperScript II (Invitrogen) transcription using the Amplitaq Gold Kit (Applied Biosystems) according to the manufacturer's protocols. […]

## COc1cc2c(C)c(CC(=O)N3CCOCC3)c(=O)oc2c(C=O)c1O [Orin 1001]
[1]; Orin 1001 80 mg/kg/day q.d. 28 days, sorafenib 18.25/25/45 mg/kg, Kaplan-Meier
  Median Survival Time (MST): 20 days
[1]; versus vehicle group (group 1)
  ILS (%) (increase of life span): 0%
[2]; mean tumor weight treated / vehicle control, day 28
  T/Cweight (%): 56%
[2]; oral gavage 28 consecutive days, Orin 1001 80 mg/kg/day, sorafenib 45 mg/kg/day
  Tumor Weight (g) at day 28: 2.68 ± 1.69 g
[3]
  inhibition of activated IRE1 (intratumoral XBP1s): can inhibit the activity of the activated IRE1
